We go through four molecules from US11384075B2, “Quinolinone compounds” (Janssen Pharmaceutica NV, priority 2017, dated 2022).

The target in assay [1] is T1, NIH/3T3 cells overexpressing FGFR3 WT-TACC3 fusion protein (Homo sapiens, UniProt P22607).
T1 construct: NIH/3T3 FGFR3 WT-TACC3 CTG (IC50); other: 72-hr incubation, CellTiter Glo, starting with 10 μM; fused on or other part: Q9Y6A5 (Transforming acidic coiled-coil-containing protein 3)
Nature of the assay: NIH/3T3 FGFR3 WT-TACC3 cell proliferation assay. Particulars: 72-hr incubation, CellTiter Glo, starting with 10 μM; read-out: NIH/3T3 FGFR3 WT-TACC3 CTG (IC50). It is filed as cell-based. In a few lines:
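Cells seeded overnight, then exposed 72 h at 37 °C to compound in 9-point 4-fold dilutions from 10 μM (0.1% DMSO final). Viability read by CellTiter-Glo luminescence, normalized to survival %; IC50, pIC50 and Hill slope from concentration-response fit.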
On the technique in general: Cellular ATP, detected with luciferase, serves as a proxy for viable cell number.

Assay [2] has as its system NIH/3T3 cells overexpressing FGFR3 WT-TACC3 fusion protein. Nature of the assay: NIH/3T3 FGFR3 WT-TACC3 cellular phospho-ERK assay (in vitro PD assay). The settings on record: Mus musculus, NIH3T3; 1-hr incubation, AlphaLISA SureFire Ultra p-ERK1/2 (Thr202/Tyr204); read-out: NIH/3T3 FGFR3 WT-TACC3 pERK (IC50). It is filed as cell-based. The protocol: NIH/3T3 FGFR3 WT-TACC3 Cellular Phospho-ERK Assay (In Vitro PD Assay)
50 μL of cell suspension (NIH/3T3 cells overexpressing FGFR3 WT-TACC3 fusion protein) (total 10,000 cells per well in growth medium (DMEM containing 1% Glutamax, 10% FBS and 1% Pen/Strep)) was seeded in a 384-well plate. After overnight incubation at 37° C. and 5% CO2, 5.5 μL of growth medium containing 10× testing compound was added into cell cultures (10 dose points with 4× serial dilution, starting with 10 μM, 0.1% DMSO final). After 1-hr incubation at 37° C. and 5% CO2, the medium was depleted and AlphaLISA SureFire Ultra p-ERK1/2 (Thr202/Tyr204) Assay Kit (from PerkinElmer) was applied for phospho-ERK level detection according to the kit instructions. The RFUs (relative fluorescence units were measured on EnVision microplate reader (ex. 680 nm, em. 615 nm) and concentration-response curve was plotted using Prism to calculate IC50 (M), pIC50 (−log IC50) and HillSlope value.

T1 sequence (P22607 whole entry, change not shown, the tested form may be a part): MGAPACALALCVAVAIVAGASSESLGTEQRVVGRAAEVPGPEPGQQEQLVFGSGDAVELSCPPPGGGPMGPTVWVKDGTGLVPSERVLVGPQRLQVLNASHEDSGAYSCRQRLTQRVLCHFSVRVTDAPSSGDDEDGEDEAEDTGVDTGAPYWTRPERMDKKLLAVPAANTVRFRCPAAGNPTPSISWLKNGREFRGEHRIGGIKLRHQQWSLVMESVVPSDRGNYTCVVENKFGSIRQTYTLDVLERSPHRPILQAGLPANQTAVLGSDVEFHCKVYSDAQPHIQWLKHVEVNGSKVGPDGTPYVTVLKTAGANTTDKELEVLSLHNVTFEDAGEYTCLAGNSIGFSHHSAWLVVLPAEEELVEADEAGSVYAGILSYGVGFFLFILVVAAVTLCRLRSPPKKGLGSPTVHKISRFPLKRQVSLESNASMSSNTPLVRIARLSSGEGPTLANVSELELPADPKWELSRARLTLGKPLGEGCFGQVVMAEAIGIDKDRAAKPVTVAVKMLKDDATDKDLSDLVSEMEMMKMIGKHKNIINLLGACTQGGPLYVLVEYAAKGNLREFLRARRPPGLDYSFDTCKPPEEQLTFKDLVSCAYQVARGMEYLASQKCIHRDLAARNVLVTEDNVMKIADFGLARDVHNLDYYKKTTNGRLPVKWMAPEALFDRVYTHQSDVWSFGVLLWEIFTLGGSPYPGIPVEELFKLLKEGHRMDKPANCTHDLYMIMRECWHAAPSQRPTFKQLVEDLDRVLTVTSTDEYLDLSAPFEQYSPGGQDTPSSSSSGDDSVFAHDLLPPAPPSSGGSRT

In the case of `C[C@H](Nc1c(-c2nc3ccc(N4CCOCC4)cc3[nH]2)c(=O)[nH]c2ccccc12)c1ncccn1` [Compound 2, (S)-3-(6-morpholino-1H-benzo[d]imidazol-2-yl)-4-((1-(pyrimidin-2-yl)ethyl)amino)-quinolin-2(1H)-one], the GI50 in assay [1] is 3.61 nM. Moreover, the IC50 in assay [2] came out at 1.24 nM.

Consider `C[C@@H]1CN(c2ccc3nc(-c4c(N[C@@H](C)c5ccccn5)c5ccccc5[nH]c4=O)[nH]c3c2)C[C@H](C)O1` [Compound 4, 3-(6-((2S,6R)-2,6-dimethylmorpholino)-1H-benzo[d]imidazol-2-yl)-4-(((S)-1-(pyridin-2-yl)ethyl)amino)quinolin-2(1H)-one], for which the GI50 in assay [1] turned out to be 24.8 nM. The IC50 in assay [2] came out at 3.87 nM.

As for `C[C@@H]1CN(c2ccc3nc(-c4c(N[C@@H](C)c5ccccn5)c5ccccc5[nH]c4=O)[nH]c3c2)C[C@@H](C)O1` [Compound 21, 3-(6-((2R,6R)-2,6-dimethylmorpholino)-1H-benzo[d]imidazol-2-yl)-4-(((S)-1-(pyridin-2-yl)ethyl)amino)quinolin-2(1H)-one], the GI50 in assay [1] is 25 nM. For the same molecule, the IC50 in assay [2] turned out to be 8.41 nM.

As to `C[C@H](Nc1c(-c2nc3ccc(N4CCOCC4)c(F)c3[nH]2)c(=O)[nH]c2ccccc12)c1ccccn1` [Compound 24, (S)-3-(7-fluoro-6-morpholino-1H-benzo[d]imidazol-2-yl)-4-((1-(pyridin-2-yl)ethyl)-amino)quinolin-2(1H)-one], the GI50 in assay [1] is 20.2 nM. Further, the IC50 in assay [2] worked out at 13.3 nM.
